Data from patent US20230201179A1, “AGENT FOR TREATING CONTRAST-INDUCED ACUTE KIDNEY INJURY” (APTABIO THERAPEUTICS INC., priority 2020, published 2023).

Assays:
reactive oxygen species = experiment: Inhibitory effect on the formation of reactive oxygen species
[1] = test system: contrast media-induced acute kidney injury; experiment: Efficacy evaluation in animal model with contrast media-induced acute kidney injury in mice; assay type: in vivo, C57BL/6 mice
Experimental: As the experimental animals, 6-week-old male C57BL/6 mice were purchased from LionBio. All mice were maintained under standard conditions. After breeding for about 2 weeks, at 8 weeks of age, Compound 1 (3-phenyl-4-n-propyl-1-(pyridin-2-yl)-1H-pyrazol-5-ol hydrochloride) was orally administered at a dose of 60 mg/kg daily for 5 days before administration of contrast media. In order to induce acute kidney injury, after a fast of 16 hours, the anti-inflammatory analgesic indomethacin (10 mg/kg) and the NO blocker N-nitro-L-arginine (L-NAME, 10 mg/kg) were intraperitoneally administered 15 minutes before administration of contrast media, and contrast media (Iohexol, 4000 mg iodine/kg) was intraperitoneally administered 15 minutes later. After 24 hours of supplying food and water, the animal test substances were classified into three groups: vehicle administered group (Control) and contrast media administered group (Iohexol), and contrast media and Compound 1 simultaneously administered group (Iohexol+Compound 1). After completion of the test, the animals were anesthetized, kidney tissue was enucleated for each individual, and blood was taken for examination. The tissues were fixed in 10% buffered neutral formalin solution. The fixed tissues were sliced to a certain thickness and paraffin-embedded through a general tissue processing process to produce a tissue section of 4 to 5 μm, and then hematoxylin & eosin staining (H&E stain), which is a general staining method, was performed to observe histopathologically the extent of kidney injury in the region of the renal cortex and renal medulla, and F4/80 staining, Tunel staining, DHE staining and nitrotyrosine staining were performed to observe the effects of inflammation and oxidative stress in the kidney injury tissue. Blood was taken and centrifuged at 3000 rpm, 4° C. for 10 minutes, and the upper layer of serum was taken and the level of blood urea nitrogen (BUN) and creatinine was measured using an automatic blood biochemical analyzer (AU480, Beckman Coulter, USA) to confirm the indicator of kidney injury. Histologic evaluation of the degree of kidney injury was calculated as 0 point for no renal tubular injury, 1 point for mild injury, 2 points for intratubular vacuolar lesions less than 25-60%, and 3 points for intratubular vacuolar lesions of 60% or more, thereby formulating the average value of renal tubular injury under the microscope field of view.

[2] = 60 mg/kg orally once a day for 5 days before Iohexol, vs contrast media-treated group

CCCCc1c(-c2ccccc2)nn(-c2ccccn2)c1O [3-phenyl-4-butyl-1-(pyridin-2-yl)-1H-pyrazol-5-ol]
inhibitory effect on the formation of reactive oxygen species (reactive oxygen species): inhibitory effect

CCCc1c(-c2ccccc2)nn(-c2ccccn2)c1O [3-phenyl-4-propyl-1-(pyridin-2-yl)-1H-pyrazol-5-ol]
inhibitory effect on the formation of reactive oxygen species (reactive oxygen species): inhibitory effect

CCCc1c(-c2ccccc2)nn(-c2ccccn2)c1O.Cl [Compound 1, 3-phenyl-4-propyl-1-(pyridin-2-yl)-1H-pyrazol-5-ol hydrochloride]
kidney injury of the renal medulla and the renal cortex (H&E histopathology, FIG. 1) ([1]; 60 mg/kg orally once a day for 5 days before Iohexol 4000 mg iodine/kg i.p., vs contrast media-treated group): remarkably reduced
renal tubular injury score (FIG. 5) ([1]; 60 mg/kg orally once a day for 5 days before Iohexol, score 0-3, renal biopsy): remarkably reduced
activated oxygen (reactive oxygen species, DHE staining) in the kidney tissue (FIG. 8) [1, 2]: remarkably reduced
concentration of BUN (serum, FIG. 2) [1, 2]: decreased
concentration of KIM-1 in the urine (FIG. 4) [1, 2]: decreased
concentration of NGAL in the urine (FIG. 4) [1, 2]: decreased
concentration of creatinine (Serum Cr, FIG. 3) [1, 2]: decreased
concentration of microproteinuria (albumin) in the urine (FIG. 4) [1, 2]: decreased
infiltration of inflammatory cells (macrophages, F4/80-positive cells) within the kidney tissue (FIG. 7) [1, 2]: remarkably reduced
inflammation (MCP-1 gene expression) in the kidney tissue (FIG. 6) [1, 2]: remarkably reduced
nitrotyrosine in the kidney tissue (FIG. 9) [1, 2]: remarkably reduced

CCc1c(-c2ccccc2)nn(-c2ccccn2)c1O [3-phenyl-4-ethyl-1-(pyridin-2-yl)-1H-pyrazol-5-ol]
inhibitory effect on the formation of reactive oxygen species (reactive oxygen species): inhibitory effect
